Values quoted from earlier work, collected in patent US11085047B2, “Synthetic cannabinoid compounds for treatment of substance addiction and other disorders” (MyMD Pharmaceuticals (Florida), Inc., priority 2018, dated 2021).

Experiments:
[1] = several clinical studies
[2] = 2.5 to 5 mg; three patients

In the case of `CCCCCc1cc(O)c2c(c1)OC(C)(C)[C@@H]1CCC(C)=C[C@@H]21` [THC, tetrahydrocannabinol], the bronchoconstriction after inhalation (inhalation of THC) is listed as “Very few patients developed bronchoconstriction”, the anti-asthmatic effect (oral THC (15 mg), acute studies) is listed as “approximately correspond to those obtained with therapeutic doses of common bronchodilator drugs” and the “mood in reactive depression” value [1] is listed as “improvement of mood”. For the same compound, the “effect on pruritus due to liver diseases” value [2] was “effective”.
